Results on three compounds are retold here after patent US20060257934A1 (priority 2005, published 2006).

For test [1], the target named is T1, GABAA receptor (rat α1β2 γ2) (Rattus norvegicus, UniProt P18508+P62813+P63138).
T1 construct: expressed in transfected cells
Put plainly: cell-based.
Description: Doubly transfected cell lines were generated that express GABAA receptor (rat α1β2 γ2) together with a yellow fluorescent protein (YFP) Topaz-based halide sensor (46/148/152 mutant).
Doubly transfected cells were plated onto black-walled, clear-bottomed, poly-D-lysine-coated 384-well plates (Becton Dickinson Biosciences). Prior to the assay, the cell medium was removed and replaced with chloride-free plating medium (CFPM; see the composition below). After the incubation in CFPM for 3-4 hours at 37° C. in a 5% CO2 atmosphere, the medium was removed and replaced with chloride-free assay buffer (CFAB; see the composition below ), containing the final concentrations of test compounds. The cells were incubated for 15-20 minutes in the dark (to preserve fluorescence of the YFP) at room temperature (RT). Once the incubation was complete, the cell plates were transferred to the FLIPR (Molecular Devices Inc., Sunnyvale, Calif.) for the assay.
YFP was excited with 488 nm wavelength light and the fluorescence measured using a 540/60 nm bandpass emission filter. FLIPR settings were routinely adjusted so that the background fluorescence reading at the beginning of the assay was 20,000-50,000 counts/ms. After measuring a baseline readout of 10 seconds, the stimulus buffer was added to the well and signal was recorded for 2-4 more minutes. The stimulus buffer comprised CFAB, except that the sodium gluconate component was replaced with sodium iodide. Note that the addition of the iodide causes quenching of the fluorescent signal. In the majority of the experiments, the final concentration of sodium iodide in the stimulus buffer was about 5 mM.
The fluorescence response was corrected for the background fluorescence, as well as for the fluorescence changes, caused by iodide only. […] The initial analysis and data export was done using FLIPR-384 software (Version 1.25).
Microsoft Excel® was used to plot concentration-response curves and determine an EC50 value. […]

For test [2], the target named is α1-containing isoforms of the GABA(A) receptor. The settings on record: read-out: EC50 for diazepam, published electrophysiological recordings; α1-containing isoforms in various expression systems; cited from earlier work.
Test [3] has as its system neuronal-like cell line NT-2 N. The settings on record: read-out: EC50 for diazepam; cited from earlier work.
The subject of test [4] is hippocampal granule cells. Conditions: read-out: EC50 for diazepam; cited from earlier work.

Each structure is given as a SMILES string. Like-named read-outs stand apart in the source and are kept apart here.

T1 sequence (P62813 28-455): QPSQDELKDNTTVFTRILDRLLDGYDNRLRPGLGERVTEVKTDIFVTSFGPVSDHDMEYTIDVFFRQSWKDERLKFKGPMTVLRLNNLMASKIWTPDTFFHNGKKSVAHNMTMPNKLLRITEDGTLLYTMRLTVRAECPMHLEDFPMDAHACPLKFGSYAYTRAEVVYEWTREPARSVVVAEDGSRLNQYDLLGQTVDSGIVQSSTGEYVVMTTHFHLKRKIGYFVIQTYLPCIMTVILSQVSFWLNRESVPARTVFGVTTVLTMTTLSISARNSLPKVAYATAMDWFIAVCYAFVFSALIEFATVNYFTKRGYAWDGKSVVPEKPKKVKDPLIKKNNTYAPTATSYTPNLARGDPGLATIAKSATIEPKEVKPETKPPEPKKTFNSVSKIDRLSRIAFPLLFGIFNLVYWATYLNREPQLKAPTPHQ
T1 sequence (P63138 25-474 limits assumed): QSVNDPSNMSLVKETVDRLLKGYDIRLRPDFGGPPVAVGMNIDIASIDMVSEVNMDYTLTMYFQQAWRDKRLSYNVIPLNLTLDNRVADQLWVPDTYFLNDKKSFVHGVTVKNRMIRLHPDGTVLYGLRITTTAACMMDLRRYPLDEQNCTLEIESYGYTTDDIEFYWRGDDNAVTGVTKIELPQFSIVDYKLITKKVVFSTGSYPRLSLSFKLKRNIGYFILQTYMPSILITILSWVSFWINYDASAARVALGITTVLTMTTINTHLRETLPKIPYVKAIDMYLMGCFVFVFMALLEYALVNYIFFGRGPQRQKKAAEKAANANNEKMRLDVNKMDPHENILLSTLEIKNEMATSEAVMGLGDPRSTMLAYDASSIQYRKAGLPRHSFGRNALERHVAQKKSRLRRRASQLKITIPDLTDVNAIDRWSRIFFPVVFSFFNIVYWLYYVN
T1 sequence (P18508 39-466): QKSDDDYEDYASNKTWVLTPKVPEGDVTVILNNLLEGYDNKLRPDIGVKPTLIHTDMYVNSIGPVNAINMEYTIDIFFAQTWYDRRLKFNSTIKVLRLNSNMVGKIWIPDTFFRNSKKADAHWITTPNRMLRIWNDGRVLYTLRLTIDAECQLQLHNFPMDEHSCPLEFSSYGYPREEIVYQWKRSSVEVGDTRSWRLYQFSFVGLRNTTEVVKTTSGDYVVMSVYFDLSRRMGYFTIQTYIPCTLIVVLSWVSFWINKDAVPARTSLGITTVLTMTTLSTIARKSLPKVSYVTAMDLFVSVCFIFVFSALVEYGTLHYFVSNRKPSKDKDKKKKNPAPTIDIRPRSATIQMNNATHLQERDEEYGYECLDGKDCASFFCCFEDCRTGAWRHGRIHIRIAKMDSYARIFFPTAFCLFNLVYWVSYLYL

`CC(=O)[C@H]1CC[C@H]2[C@@H]3CC[C@H]4C[C@H](O)CC[C@]4(C)[C@H]3CC[C@]12C` [allopregnanolone]: in test [1] (against constant GABA 0.25 μM), the “Effect on GABA-induced fluorescent signal” value is reported as “concentration-dependent increase”.

For orientation: IC50 means the point on the concentration scale where inhibition reaches its midpoint. Lower therefore signals greater potency in that assay. Take `CN1CCc2cc3c(cc2[C@H]1[C@@H]1OC(=O)c2c1ccc1c2OCO1)OCO3` [bicuculline]: the IC50 in test [1] was 4.7 ± 0.9 µM.

The EC50 is the midpoint of the concentration-response curve. With `CN1C(=O)CN=C(c2ccccc2)c2cc(Cl)ccc21` [diazepam], the “Effect on GABA-induced fluorescent signal” value in test [1] was “concentration-dependent increase”. Moreover, the values for the EC50 in test [2], in test [3] and in test [4] were 0.053 to 0.07 µM, 0.074 µM and 0.122 µM, respectively.
